Assay results from US9708314B2, “Heterocyclic amide compound” (NISSAN CHEMICAL INDUSTRIES, LTD., priority 2013, dated 2017).

Tests used:
Assay type in all cases: in vivo
Triticum aestivum = experiment: Test Example 4: effect on crop by application to foliage (diluvial soil, plastic box); details: for e (Triticum aestivum) effect on crop grade: foliage application
Procedure, shortened: (§1)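 Scores run from 0 (herbicidal ratio ≤5%) to 5 (≥90%, almost fully withered) and were assessed three weeks after foliar spraying. Seedlings had been raised for 14 days at 25-30° C in sterilized diluvial soil before treatment, with the emulsion diluted in water to the stated g/ha dose.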

[1] = tested on: directly sowed Oryza sativa; experiment: as above; details: for d (directly sowed Oryza sativa) effect on crop grade: foliage application
Procedure, shortened: as §1

Zea mays = experiment: as above; details: for b (Zea mays) effect on crop grade: foliage application
Procedure, shortened: as §1

Glycine max = experiment: as above; details: for c (Glycine max) effect on crop grade: foliage application
Procedure, shortened: as §1

[2] = tested on: Beta vulgaris ssp. vulgaris; experiment: as above; details: for f (Beta vulgaris ssp. vulgaris) effect on crop grade: foliage application
Procedure, shortened: as §1

Brassica campestris L. = experiment: as above; details: for g (Brassica campestris L.) effect on crop grade: foliage application
Procedure, shortened: as §1

[3] = tested on: directly sowed Oryza sativa; experiment: Test Example 3: effect on crop by application to foliage (Wagner pot, water depth 0.1-0.5 cm); details: Nineteenth Table, application to foliage
Procedure, shortened: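 Scores (0–5) reflect herbicidal ratio three weeks after a foliar spray: 0 is 5% or less, 5 is 90% or more. Plants had grown 14 days in alluvial soil pots in a 25–30 °C greenhouse before treatment with water-diluted emulsion at a set g/ha.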

Avena fatua = experiment: Test Example 4: herbicidal effect by application to foliage (diluvial soil, plastic box); details: for I (Avena fatua) herbicidal effect grade: foliage application
Procedure, shortened: as §1

Veronica persica = experiment: as above; details: for R (Veronica persica) herbicidal effect grade: foliage application
Procedure, shortened: as §1

Alopecurus myosuroides = experiment: as above; details: for J (Alopecurus myosuroides) herbicidal effect grade: foliage application
Procedure, shortened: as §1

Abutilon theophrasti = experiment: as above; details: for M (Abutilon theophrasti) herbicidal effect grade: foliage application
Procedure, shortened: as §1

Setaria viridis = experiment: as above; details: for G (Setaria viridis) herbicidal effect grade: foliage application
Procedure, shortened: as §1

Stellaria media = experiment: as above; details: for P (Stellaria media) herbicidal effect grade: foliage application
Procedure, shortened: as §1

Digitaria ciliaris = experiment: as above; details: for F (Digitaria ciliaris) herbicidal effect grade: foliage application
Procedure, shortened: as §1

Galium spurium = experiment: as above; details: for Q (Galium spurium) herbicidal effect grade: foliage application
Procedure, shortened: as §1

[4] = tested on: Echinochloa crus-galli var. crus-galli; experiment: as above; details: for H (Echinochloa crus-galli var. crus-galli) herbicidal effect grade: foliage application
Procedure, shortened: as §1

Chenopodium album = experiment: as above; details: for O (Chenopodium album) herbicidal effect grade: foliage application
Procedure, shortened: as §1

Apera spica-venti. = experiment: as above; details: for L (Apera spica-venti.) herbicidal effect grade: foliage application
Procedure, shortened: as §1

Lolium multiflorum Lam. = experiment: as above; details: for K (Lolium multiflorum Lam.) herbicidal effect grade: foliage application
Procedure, shortened: as §1

Amaranthus retroflexus = experiment: as above; details: for N (Amaranthus retroflexus) herbicidal effect grade: foliage application
Procedure, shortened: as §1

[5] = application herbicide amount 320 g/ha
[6] = application to foliage, application herbicide amount 320 g/ha
[7] = application to foliage, 320 g/ha

Structure (SMILES): CC(C)c1nnc2c(C(=S)Nc3nnnn3C)ccc(C(F)(F)F)n12 [2-039, 3-Isopropyl-N-(1-methyl-1H-tetrazol-5-yl)-5-(trifluoromethyl)-[1,2,4]triazolo[4,3-a]pyridine-8-carbothioamide]
- e (Triticum aestivum) effect on crop grade (Triticum aestivum; 320 g/ha): 3 (Herbicidal ratio of 40% or more and less than 70%)
- d (directly sowed Oryza sativa) effect on crop grade ([1]; 320 g/ha): 4 (Herbicidal ratio of 70% or more and less than 90%)
- b (Zea mays) effect on crop grade (Zea mays; 320 g/ha): 4 (Herbicidal ratio of 70% or more and less than 90%)
- c (Glycine max) effect on crop grade (Glycine max; 320 g/ha): 3 (Herbicidal ratio of 40% or more and less than 70%)
- f (Beta vulgaris ssp. vulgaris) effect on crop grade ([2]; 320 g/ha): 5 (Herbicidal ratio of 90% or more (almost completely withered))
- g (Brassica campestris L.) effect on crop grade (Brassica campestris L.; 320 g/ha): 5 (Herbicidal ratio of 90% or more (almost completely withered))
- b (effect on crop grade) [3, 5]: 4 (Herbicidal ratio of 70% or more and less than 90%)
- I (Avena fatua) herbicidal effect grade (Avena fatua; 320 g/ha): 4 (Herbicidal ratio of 70% or more and less than 90%)
- R (Veronica persica) herbicidal effect grade (Veronica persica; 320 g/ha): 5 (Herbicidal ratio of 90% or more (almost completely withered))
- J (Alopecurus myosuroides) herbicidal effect grade (Alopecurus myosuroides; 320 g/ha): 3 (Herbicidal ratio of 40% or more and less than 70%)
- M (Abutilon theophrasti) herbicidal effect grade (Abutilon theophrasti; 320 g/ha): 5 (Herbicidal ratio of 90% or more (almost completely withered))
- G (Setaria viridis) herbicidal effect grade (Setaria viridis; 320 g/ha): 5 (Herbicidal ratio of 90% or more (almost completely withered))
- P (Stellaria media) herbicidal effect grade (Stellaria media; 320 g/ha): 5 (Herbicidal ratio of 90% or more (almost completely withered))
- F (Digitaria ciliaris) herbicidal effect grade (Digitaria ciliaris; 320 g/ha): 5 (Herbicidal ratio of 90% or more (almost completely withered))
- Q (Galium spurium) herbicidal effect grade (Galium spurium; 320 g/ha): 4 (Herbicidal ratio of 70% or more and less than 90%)
- H (Echinochloa crus-galli var. crus-galli) herbicidal effect grade ([4]; 320 g/ha): 5 (Herbicidal ratio of 90% or more (almost completely withered))
- O (Chenopodium album) herbicidal effect grade (Chenopodium album; 320 g/ha): 5 (Herbicidal ratio of 90% or more (almost completely withered))
- L (Apera spica-venti.) herbicidal effect grade (Apera spica-venti.; 320 g/ha): 4 (Herbicidal ratio of 70% or more and less than 90%)
- K (Lolium multiflorum Lam.) herbicidal effect grade (Lolium multiflorum Lam.; 320 g/ha): 3 (Herbicidal ratio of 40% or more and less than 70%)
- N (Amaranthus retroflexus) herbicidal effect grade (Amaranthus retroflexus; 320 g/ha): 5 (Herbicidal ratio of 90% or more (almost completely withered))

Structure (SMILES): CC(C)c1nnc2c(C(=O)Nc3nnnn3C)ccc(C(F)(F)F)n12 [2-003]
- e: effect on crop, Triticum aestivum (Triticum aestivum; [6]): 3 (Herbicidal ratio of 40% or more and less than 70%)
- b: effect on crop, directly sowed Oryza sativa [1, 6]: 4 (Herbicidal ratio of 70% or more and less than 90%)
- c: effect on crop, Zea mays (Zea mays; [6]): 1 (Herbicidal ratio of 5% or more and less than 20%)
- d: effect on crop, Glycine max (Glycine max; [6]): 4 (Herbicidal ratio of 70% or more and less than 90%)
- f: effect on crop, Beta vulgaris ssp. vulgaris [2, 6]: 5 (Herbicidal ratio of 90% or more (almost completely withered))
- g: effect on crop, Brassica campestris L. (Brassica campestris L.; [6]): 5 (Herbicidal ratio of 90% or more (almost completely withered))
- b (effect on crop grade) ([3]; application herbicide amount 200 g/ha): 0 (Herbicidal ratio of 5% or less (almost no effect))
- I: herbicidal effect on Avena fatua (Avena fatua; [6]): 3 (Herbicidal ratio of 40% or more and less than 70%)
- R: herbicidal effect on Veronica persica (Veronica persica; [6]): 5 (Herbicidal ratio of 90% or more (almost completely withered))
- J: herbicidal effect on Alopecurus myosuroides (Alopecurus myosuroides; [6]): 3 (Herbicidal ratio of 40% or more and less than 70%)
- M: herbicidal effect on Abutilon theophrasti (Abutilon theophrasti; [6]): 5 (Herbicidal ratio of 90% or more (almost completely withered))
- G: herbicidal effect on Setaria viridis (Setaria viridis; [6]): 5 (Herbicidal ratio of 90% or more (almost completely withered))
- P: herbicidal effect on Stellaria media (Stellaria media; [6]): 5 (Herbicidal ratio of 90% or more (almost completely withered))
- F: herbicidal effect on Digitaria ciliaris (Digitaria ciliaris; [6]): 5 (Herbicidal ratio of 90% or more (almost completely withered))
- Q: herbicidal effect on Galium spurium (Galium spurium; [6]): 4 (Herbicidal ratio of 70% or more and less than 90%)
- H: herbicidal effect on Echinochloa crus-galli var. crus-galli [4, 6]: 5 (Herbicidal ratio of 90% or more (almost completely withered))
- O: herbicidal effect on Chenopodium album (Chenopodium album; [6]): 5 (Herbicidal ratio of 90% or more (almost completely withered))
- L: herbicidal effect on Apera spica-venti. (Apera spica-venti.; [6]): 5 (Herbicidal ratio of 90% or more (almost completely withered))
- K: herbicidal effect on Lolium multiflorum Lam. (Lolium multiflorum Lam.; [6]): 3 (Herbicidal ratio of 40% or more and less than 70%)
- N: herbicidal effect on Amaranthus retroflexus (Amaranthus retroflexus; [6]): 5 (Herbicidal ratio of 90% or more (almost completely withered))

Structure (SMILES): Cn1nnnc1NC(=O)c1ccc(C(F)(F)F)n2c(=O)n(C)nc12 [6-002]
- effect on crop, e (Triticum aestivum) (Triticum aestivum; [7]): 0 (Herbicidal ratio of 5% or less (almost no effect))
- effect on crop, d (directly sowed Oryza sativa) [1, 7]: 3 (Herbicidal ratio of 40% or more and less than 70%)
- effect on crop, b (Zea mays) (Zea mays; [7]): 0 (Herbicidal ratio of 5% or less (almost no effect))
- effect on crop, c (Glycine max) (Glycine max; [7]): 0 (Herbicidal ratio of 5% or less (almost no effect))
- effect on crop, f (Beta vulgaris ssp. vulgaris) [2, 7]: 3 (Herbicidal ratio of 40% or more and less than 70%)
- effect on crop, g (Brassica campestris L.) (Brassica campestris L.; [7]): 3 (Herbicidal ratio of 40% or more and less than 70%)
- b (effect on crop grade) [3, 5]: 0 (Herbicidal ratio of 5% or less (almost no effect))
- herbicidal effect, I (Avena fatua) (Avena fatua; [7]): 1 (Herbicidal ratio of 5% or more and less than 20%)
- herbicidal effect, R (Veronica persica) (Veronica persica; [7]): 4 (Herbicidal ratio of 70% or more and less than 90%)
- herbicidal effect, J (Alopecurus myosuroides) (Alopecurus myosuroides; [7]): 0 (Herbicidal ratio of 5% or less (almost no effect))
- herbicidal effect, M (Abutilon theophrasti) (Abutilon theophrasti; [7]): 5 (Herbicidal ratio of 90% or more (almost completely withered))
- herbicidal effect, G (Setaria viridis) (Setaria viridis; [7]): 3 (Herbicidal ratio of 40% or more and less than 70%)
- herbicidal effect, P (Stellaria media) (Stellaria media; [7]): 5 (Herbicidal ratio of 90% or more (almost completely withered))
- herbicidal effect, F (Digitaria ciliaris) (Digitaria ciliaris; [7]): 4 (Herbicidal ratio of 70% or more and less than 90%)
- herbicidal effect, Q (Galium spurium) (Galium spurium; [7]): 3 (Herbicidal ratio of 40% or more and less than 70%)
- herbicidal effect, H (Echinochloa crus-galli var. crus-galli) [4, 7]: 5 (Herbicidal ratio of 90% or more (almost completely withered))
- herbicidal effect, O (Chenopodium album) (Chenopodium album; [7]): 5 (Herbicidal ratio of 90% or more (almost completely withered))
- herbicidal effect, L (Apera spica-venti.) (Apera spica-venti.; [7]): 0 (Herbicidal ratio of 5% or less (almost no effect))
- herbicidal effect, K (Lolium multiflorum Lam.) (Lolium multiflorum Lam.; [7]): 0 (Herbicidal ratio of 5% or less (almost no effect))
- herbicidal effect, N (Amaranthus retroflexus) (Amaranthus retroflexus; [7]): 5 (Herbicidal ratio of 90% or more (almost completely withered))

Structure (SMILES): Cn1nnnc1NC(=O)c1ccc(C(F)(F)F)n2c(C[S+]([O-])CC(F)(F)F)nnc12 (centres unmarked) [2-035]
- e (Triticum aestivum) effect on crop grade (Triticum aestivum; 320 g/ha): 4 (Herbicidal ratio of 70% or more and less than 90%)
- d (directly sowed Oryza sativa) effect on crop grade ([1]; 320 g/ha): 4 (Herbicidal ratio of 70% or more and less than 90%)
- b (Zea mays) effect on crop grade (Zea mays; 320 g/ha): 5 (Herbicidal ratio of 90% or more (almost completely withered))
- c (Glycine max) effect on crop grade (Glycine max; 320 g/ha): 2 (Herbicidal ratio of 20% or more and less than 40%)
- f (Beta vulgaris ssp. vulgaris) effect on crop grade ([2]; 320 g/ha): 5 (Herbicidal ratio of 90% or more (almost completely withered))
- g (Brassica campestris L.) effect on crop grade (Brassica campestris L.; 320 g/ha): 5 (Herbicidal ratio of 90% or more (almost completely withered))
- b (effect on crop grade) [3, 5]: 5 (Herbicidal ratio of 90% or more (almost completely withered))
- I (Avena fatua) herbicidal effect grade (Avena fatua; 320 g/ha): 4 (Herbicidal ratio of 70% or more and less than 90%)
- R (Veronica persica) herbicidal effect grade (Veronica persica; 320 g/ha): 5 (Herbicidal ratio of 90% or more (almost completely withered))
- J (Alopecurus myosuroides) herbicidal effect grade (Alopecurus myosuroides; 320 g/ha): 3 (Herbicidal ratio of 40% or more and less than 70%)
- M (Abutilon theophrasti) herbicidal effect grade (Abutilon theophrasti; 320 g/ha): 5 (Herbicidal ratio of 90% or more (almost completely withered))
- G (Setaria viridis) herbicidal effect grade (Setaria viridis; 320 g/ha): 5 (Herbicidal ratio of 90% or more (almost completely withered))
- P (Stellaria media) herbicidal effect grade (Stellaria media; 320 g/ha): 5 (Herbicidal ratio of 90% or more (almost completely withered))
- F (Digitaria ciliaris) herbicidal effect grade (Digitaria ciliaris; 320 g/ha): 5 (Herbicidal ratio of 90% or more (almost completely withered))
- Q (Galium spurium) herbicidal effect grade (Galium spurium; 320 g/ha): 2 (Herbicidal ratio of 20% or more and less than 40%)
- H (Echinochloa crus-galli var. crus-galli) herbicidal effect grade ([4]; 320 g/ha): 5 (Herbicidal ratio of 90% or more (almost completely withered))
- O (Chenopodium album) herbicidal effect grade (Chenopodium album; 320 g/ha): 5 (Herbicidal ratio of 90% or more (almost completely withered))
- L (Apera spica-venti.) herbicidal effect grade (Apera spica-venti.; 320 g/ha): 4 (Herbicidal ratio of 70% or more and less than 90%)
- K (Lolium multiflorum Lam.) herbicidal effect grade (Lolium multiflorum Lam.; 320 g/ha): 4 (Herbicidal ratio of 70% or more and less than 90%)
- N (Amaranthus retroflexus) herbicidal effect grade (Amaranthus retroflexus; 320 g/ha): 5 (Herbicidal ratio of 90% or more (almost completely withered))
